Measurements from patent US20120046261A1, “COMPOSITIONS AND METHODS FOR DIAGNOSING AND PREVENTING SPONTANEOUS PRETERM BIRTH” (UNIVERSITY OF UTAH RESEARCH FOUNDATION, priority 2009, published 2012).
“Also recorded” adds a separate entry of the source.

System: women with prior spontaneous preterm birth
Assay: Multicenter, prospective, double-blind study of 17P vs. placebo for prevention of recurrent SPTB, secondary analysis by hPR genotype
Format: in vivo, human
Experimental: The goal of this study was to assess if women with single nucleotide polymorphisms (SNPs) in the human progesterone receptor (hPR) are more or less likely to respond to 17P for the prevention of recurrent SPTB. This study involved secondary analysis of 463 women enrolled in a multicenter, prospective, double-blind study of 17P vs. placebo for the prevention of recurrent SPTB.
Of 463 patients randomized in the original study, 459 were analyzed. Two thirds of women were randomized to 17P and one third were randomized to placebo. Of those patients who received 17P, 111, or 36%, delivered preterm less than 37 weeks, and 195, or 64%, delivered at term. Among those patients who received placebo, the preterm birth rate was higher, as 55% of women delivered preterm. During summer 2008, DNA was extracted from stored saliva samples. […]
20 SNPs in the hPR gene were selected to encompass the large progesterone receptor haplotype block. The 389 individuals with DNA available were then genotyped using TaqMan chemistry with established primers. Allele and genotype frequencies were calculated and evaluated for evidence of genetic predisposition to 17P response. Women were stratified by self-reported race. Primary outcomes evaluated were preterm birth<37 and <32 weeks
Regression was used to assess for an interaction between genotype, treatment, and clinical outcomes. Models controlled for number of prior spontaneous preterm births, smoking, and pre-pregnancy body mass index.
Dominant and recessive models of inheritance were used in this study (see Table 2 above). The dominant model assumes that having at least one copy of the minor allele is sufficient for disease. Patients homozygous for the minor allele and heterozygous patients with one minor allele are grouped together; here “little a/little a” and “Big A/little a” are compared with those homozygous for the major allele, “Big A/Big A.” The recessive model assumes that two copies of the minor allele are needed for disease. Here, those patients who are homozygous for the minor allele “little a/little a” are compared against the others.
Outcomes were available on 459 of the original 463 patients enrolled in the study. The study population of 389 patients was representative of the original cohort (see Table 3 below). The majority of patients in the cohort were African-American. Two-thirds of patients in the cohort received 17P. Furthermore, a similar proportion of patients delivered preterm less than 37 weeks and very preterm, less than 32 weeks, in the cohort when compared to the original study. Additionally, 21.1% of patients smoked during pregnancy. All patients had at least one prior spontaneous preterm birth in order to qualify for the original study. 28% of patients had 2 or more prior spontaneous preterm deliveries. The average pre-pregnancy body mass index was 26.7 kilograms per meter squared.

[1] = all patients who received 17P, original study cohort (459 analyzed)

Question: For `CCCCCC(=O)O[C@]1(C(C)=O)CC[C@H]2[C@@H]3CCC4=CC(=O)CC[C@]4(C)[C@H]3CC[C@@]21C` [17P, 17 alpha-hydroxyprogesterone caproate], which “percentage of patients delivering preterm <37 weeks” value (African Americans, rs471767 AA genotype (homozygous major allele), receiving 17P, placebo nearly 60%) is on record?
Answer: Its value is 21%.

Question: What about the “percentage of patients delivering preterm <37 weeks” value (African Americans, rs471767 at least one minor allele (G; AG and GG), receiving 17P) of the same compound?
Answer: Its value is “under 40%”.

Question: And the “rate of prematurity (SPTB)” value (African Americans, rs578029 at least one major allele (T), receiving 17P, placebo approximately 55%)?
Answer: The value was 25%.

Question: And the “reduction in preterm birth rates with 17P” value (African Americans, rs578029 homozygous for the minor allele (A))?
Answer: The value was “no reduction”.

Question: What about the “patients who delivered at term” value [1] of the same compound?
Answer: Its value is 64%.

Question: And the “patients who delivered preterm less than 37 weeks” value [1]?
Answer: Its value is 36%.

Question: What about the “rate of preterm birth <32 weeks gestation” value (non-African American (Caucasian/Hispanic), rs666553 at least one minor allele (T), receiving 17P, placebo 26.7%) of the same compound?
Answer: Its value is 3.4%.

Question: And the “reduction in prematurity (<32 weeks) with 17P” value (non-African American (Caucasian/Hispanic), rs666553 homozygous for the major allele)?
Answer: The value was “do not experience any reduction; also recorded: did not experience any reduction”.

Question: What about the “rate of preterm birth <32 weeks gestation” value (non-African American, rs503362 at least one minor allele (C), receiving 17P, placebo 17.4%) of the same compound?
Answer: The value was 2.6%.

Question: And the “reduction in the rate of prematurity (<32 weeks) when receiving 17P” value (non-African American, rs503362 homozygous for the major allele (G))?
Answer: Its value is “did not have a reduction”.
